No end group written: not given here.
Assays:
SAMP8 mice [1] = assay: Object recognition task; format: in vivo; conditions: 7-month SAMP8 mice
Protocol: (§1) All SAMP8 mice were treated with either saline or pramlintide beginning at 6 months of age. A subcutaneous ALZET® osmotic minipump (Model 2002, Durect Corp., Cupertino, Calif., USA) was surgically implanted into all mice as described previously^26. The osmotic mini-pump infused 0.24 mg/kg/day pramlintide acetate (0.6 mg/mL pramlintide, Amylin Pharmaceuticals, Inc., San Diego, Calif.) or saline at a rate of 0.5 μL/hr. Pumps were replaced with new refilled pumps every two weeks throughout the study duration. All animals were weighed weekly throughout the course of the experiment.
A total of 20 SAMP8 mice were used in the object recognition task. […] The mice were allowed to explore the environment for 10 minutes, during which their movements were recorded with a tracking system. […]
Videos recordings of the retention session were scored by an investigator blinded to the treatment groups. Object exploration, defined as the duration of time in which the head of the mouse faced less than ½ cm from the object, was measured during the training and retention sessions. The frequency of object exploration was also recorded, as well as the frequency and time spent rearing and grooming to determine general exploratory behavior. […] The recognition index was calculated as the percent of time spent exploring the novel object versus the total time spent exploring the objects.

synapsin I = assay: Western blotting of hippocampal synapsin I; format: in vivo; conditions: SAMP8 mice treated five weeks, vs saline
Protocol: (§2) All SAMP8 mice were sacrificed by lethal overdose 5 weeks after the initiation of the pramlintide and saline treatments. The brains were harvested and the hippocampus was dissected and homogenized in protease and phosphatase inhibitor-supplemented 1×RIPA lysis/extraction buffer (Pierce). Total protein was quantified using the BCA Protein Assay Kit (Pierce). 10-20 μg of protein was run in a 10% SDS-PAGE gel and the protein was transferred onto Polyvinylidene fluoride (PVDF) membranes (Millipore). After blocking for one hour in 5% milk, the membranes were incubated overnight at 4° C. in the primary antibody at a 1:1000 dilution, followed by a 1-hour incubation with HRP-conjugated IgG at a 1:10,000 dilution. Primary antibodies used were CDK5 (Millipore), P35/P25 (Millipore), Synapsin I (Santa Cruz), and HO-1 (Gift from Dr. Zhu). The blots were developed using Immobilon Western Chemiluminescent HRP Substrate (Millipore) and imaged using FluorChem M (ProteinSimple). Membranes were stripped using Restore Western Blot Stripping Buffer (Thermo Scientific) for reprobing. Quantifications were performed using ImageJ software.

[2] = Body weight change during 5-week pramlintide minipump infusion; format: in vivo; conditions: over 5-week treatment period, 0.24 mg/kg/day s.c. minipump, SAMP8 mice
Protocol: SAMP8 and SAM-resistant 1 (SAMR1) mice were obtained from an established colony at Case Western Reserve University. All animals were group housed, provided ad libitum access to a standard diet and water, and were exposed to a 12/12 light/dark daily cycle. The mice were housed under pathogen-free conditions at a temperature of 21±1.5° C.
as §1
To investigate the effects of pramlintide on memory, SAMP8 mice were continually infused with saline or pramlintide for a total of five weeks. Consistent with pramlintide's known anorexic effect, the pramlintide-treated mice experienced a change in body weight of −5.8% (Std=4.7) over the course of the treatment period as compared to a weight change of −0.1% (6.1) for the saline-treated mice. […]

CDK5 = assay: Western blotting of hippocampal CDK5; format: in vivo; conditions: SAMP8 mice treated five weeks, relative to saline-treated group
Protocol: as §2

[3] = system: BrdU-positive cells in the dentate gyrus; assay: BrdU immunostaining, hippocampal neurogenesis; format: in vivo; conditions: 9-month SAMR1 mice, two weeks minipump, compared to saline-treated mice
Protocol: (§3) To determine the acute effects of pramilide on potential mechanisms associated with cognitive function a total of 12 control mice (SAMR1) 9 months of age were used to measure the effects of pramlintide on hippocampal neurogenesis. Half of the mice (n=6) were infused by minipump with pramlintide for a total of two weeks, while the other half (n=6) received minipumps filled with saline. For the last seven days of the experiment, all mice received daily intraperitoneal injections of 50 mg/kg BRDU (Sigma, St Louis, […].) dissolved in 0.9% saline and filtered at […]. One day after the last BRDU injection, mice were deeply anesthetized and transcranially perfused using 4% paraformaldehyde in 0.9% saline. The brains were then extracted and post-fixed in 4% paraformaldehyde for 24 hours, after which they were placed in a 30% sucrose solution for three days. All brains were quick-frozen and then cut into 40 μm sagital sections using a cryostatand stored at 4° C. as floating sections.
BRDU immunohistochemistry was performed as previously described. […]
A validated sterology protocol was used to quantify BrdU-labeled cells in the dentate gyrus. […] All BrdU-positive cells in the dentate gyrus of the hippocampus were counted in every 6th section through the hippocampus, for a total of 12 sections per animal. […]

p35, p25 = assay: Western blotting of hippocampal p35/p25; format: in vivo; conditions: hippocampus, SAMP8 mice, five weeks, vs saline
Protocol: as §2

4-Hydroxynonenal (HNE) = assay: Cellular stress immunohistochemistry, HNE; format: in vivo, SAMR1 mice; conditions: mice treated for 2 weeks, compared to saline-treated mice
Protocol: as §3
(§4) To determine whether pramilide had more acute neuroprotective effects in non-pathological conditions, sections from the same mice used for neurogenesis were used to determine markers of cellular stress. […]
(§5) Tissue sections were quantified. […] Six fields across the hippocampus were drawn and % staining within that field was measured using Metamorph software. […]

HO-1 = assay: Western blotting of hippocampal HO-1; format: in vivo; conditions: SAMP8 mice, 5 weeks, compared to saline-treated mice
Protocol: as §2

cyclooxygenase 2 (COX-2) = assay: Cellular stress immunohistochemistry, COX-2; format: in vivo, SAMR1 mice; conditions: mice treated for 2 weeks, compared to saline-treated mice
Protocol: as §3, §4, §5

SAMP8 mice [4] = assay: Morris water maze (learning, probe and retention trials); format: in vivo; conditions: chronic amylin; for MWM maze learning: acute leptin at time of testing, FIGS. 10 and 11
Excerpt: In this Example, we examined whether chronic amylin administration has beneficial effects on cognition using senescence-accelerated SAMP8 mice, a validated animal model of mild cognitive impairment (MCI)/early Alzheimer's disease (AD) in which the mice experience premature cognitive deficits. Given that the anorectic effects of amylin are specifically synergistic with another metabolic hormone, leptin, we also studied whether amylin's effects on cognition might be enhanced when used in conjunction with leptin.
(§6) To validate the hypothesis that amylin is a cognitive enhancing drug that can be given alone and that may provide benefit for cognitive dysfunction associated diseases such as AD or age-related cognitive dysfunction (normal or Mild cognitive impairment (MCI)), we determined the ability of chronic treatment with amylin to improve cognitive function in the Morris water maze and object recognition tasks in the age accelerated SAMP8 mouse model, a model of MCI/early AD. […] Furthermore, improvement of amylin treatment in the retention trial, carried out 24 hrs reflects the ability of amylin to improve consolidation to long-term, permanent memory. (FIG. 9).
(§7) We were able to test this hypothesis under chronic amylin treatment and acute delivery of leptin at time of testing in SAMP8 mice. […] The slope of curve for the SAMP8 mice treated with a combination of amylin and leptin was the steepest […]. […] Novel object recognition testing, another cognition-based test, supported our findings in the MWM. […] It is important to note that these studies were carried out in cognitively impaired animals with leptin treatments under acute conditions. As such, it is likely that the lack of observable synergistic additive magnitude derives from insufficient length of leptin treatment.

SAMP8 mice [5] = assay: Novel object recognition testing; format: in vivo; conditions: chronic amylin, leptin delivered acutely, vs saline, FIG. 13
Excerpt: as §6, §7

Row | Molecule | recognition index (SAMP8 mice [1]; 5 weeks infusion, retention test 3 hours after training, vs saline) | difference score (recognition memory) (SAMP8 mice [1]; chronic treatment, vs saline-treated controls) | hippocampal expression of synapsin I (synapsin I) | change in body weight [2] [%] | hippocampal expression of the protein CDK5 (CDK5) | more BrdU-positive cells in the dentate gyrus [3] [%] | amount of cleavage product p25 (p35, p25) | amount of the CDK5 activator p35 (p35, p25) | ratio of p25/p35 (p35, p25) | HNE immunostaining in the hippocampus (4-Hydroxynonenal (HNE)) | expression of the protein HO-1 in the hippocampus (HO-1) | COX-2 immunostaining in the hippocampus (cyclooxygenase 2 (COX-2)) | learning of the MWM task (SAMP8 mice [4]; SAMP8 (P8) vs non-treated P8, FIG. 8) | MWM probe trial (SAMP8 mice [4]; SAMP8 vs non-treated P8, FIG. 9) | MWM maze learning (SAMP8 mice [4]; SAMP8 mice) | MWM retention trial (SAMP8 mice [4]; retention carried out 24 hrs, FIG. 9) | MWM probe/retention trials (SAMP8 mice [4]; acute leptin, SAMP8 mice, compared to saline, FIG. 12) | novel object recognition, discrimination ratio (SAMP8 mice [5])
1 | CC[C@H](C)[C@H](NC(=O)[C@@H]1CCCN1C(=O)CNC(=O)[C@H](Cc1ccccc1)NC(=O)[C@H](CC(N)=O)NC(=O)[C@H](CC(N)=O)NC(=O)[C@H](CO)NC(=O)[C@H](CO)NC(=O)[C@H](Cc1c[nH]cn1)NC(=O)[C@@H](NC(=O)[C@H](CC(C)C)NC(=O)[C@H](Cc1ccccc1)NC(=O)[C@H](CC(N)=O)NC(=O)[C@H](C)NC(=O)[C@H](CC(C)C)NC(=O)[C@H](CCCNC(=N)N)NC(=O)[C@H](CCC(N)=O)NC(=O)[C@@H](NC(=O)[C@H](C)NC(=O)[C@@H]1CSSC[C@H](NC(=O)[C@@H](N)CCCCN)C(=O)N[C@@H](CC(N)=O)C(=O)N[C@@H]([C@@H](C)O)C(=O)N[C@@H](C)C(=O)N[C@@H]([C@@H](C)O)C(=O)N1)[C@@H](C)O)C(C)C)C(=O)N[C@@H](CC(C)C)C(=O)N1CCC[C@H]1C(=O)N1CCC[C@H]1C(=O)N[C@H](C(=O)N[C@@H](CC(N)=O)C(=O)N[C@H](C(=O)NCC(=O)N[C@@H](CO)C(=O)N[C@@H](CC(N)=O)C(=O)N[C@H](C(=O)N[C@@H](Cc1ccc(O)cc1)C(N)=O)[C@@H](C)O)C(C)C)[C@@H](C)O [pramlintide] | 0.67 (Std=0.06) | significantly increased | significantly increase | −5.8 | significantly increased | 40 | no differences | no differences | no differences | trend toward decreased | significantly decreased | significant decreases | – | – | – | – | – | –
2 | amylin: 37-amino acid polypeptide hormone normally co-secreted with insulin by pancreatic beta cells (KCNTATCATQRLANFLVHSSNNFGAILSSTNVGSNTY; not fully specified (C-terminus, bridges); cysteine pairing not given here; UniProt P10997 34-70, looked up) | – | – | – | – | – | – | – | – | – | – | – | – | potent effect on learning | perform better than non-treated P8 | improved | improvement | – | –
3 | leptin: metabolic hormone, delivered acutely at time of testing (protein, UniProt P41160 22-167, looked up) Leptin: VPIQKVQDDTKTLIKTIVTRINDISHTQSVSAKQRVTGLDFIPGLHPILSLSKMDQTLAVYQQVLTSLPSQNVLQIANDLENLRDLLHLLAFSKSCSLPQTSGLQKPESLDGVLEASLYSTEVVALSRLQGSLQDILQQLDVSPEC | – | – | – | – | – | – | – | – | – | – | – | – | – | – | improved | – | no benefits | no benefits

Reference: US9682125B2, “Compositions and methods for treating cognitive deficits” (Case Western Reserve University, priority 2011, dated 2017)
